Assay results as given in ChEMBL document CHEMBL1153943, “Exploring the pharmacokinetic properties of phosphorus-containing selective HDAC 1 and 2 inhibitors (SHI-1:2)” (Bioorg Med Chem Lett, 2009).
Active and inactive are the calls of the source. No cut-off for these calls is given here.

How the values were obtained:
[1] = target: Histone deacetylase 1 (Homo sapiens, UniProt Q13547); experiment: Inhibition of HDAC1
[2] = Cmax in mouse at 150 mg/kg, po; format: ADME, organism-based; parameters: dose 150 mg/kg, route oral; conditions: in vivo
[3] = AUC in mouse at 150 mg/kg, po; format: ADME, organism-based, Plasma; parameters: dose 150 mg/kg, route oral; conditions: whole blood
[4] = test system: HCT-116; experiment: Antiproliferative activity against human HCT116 cells after 72 hrs; format: functional; conditions: HCT-116, 72 h
[5] = test system: Mus musculus; experiment: Toxicity in human HCT116 cells xenografted CD1 mouse at 150 to 300 mg/kg, po after 21 days; format: organism-based, HCT-116; parameters: dose 150-300 mg/kg, route oral; conditions: in vivo, 504 h
[6] = target: T1, Protein deacetylase HDAC6 (Homo sapiens, UniProt Q9UBN7); experiment: Inhibition of HDAC6
T1 sequence (Q9UBN7 whole entry): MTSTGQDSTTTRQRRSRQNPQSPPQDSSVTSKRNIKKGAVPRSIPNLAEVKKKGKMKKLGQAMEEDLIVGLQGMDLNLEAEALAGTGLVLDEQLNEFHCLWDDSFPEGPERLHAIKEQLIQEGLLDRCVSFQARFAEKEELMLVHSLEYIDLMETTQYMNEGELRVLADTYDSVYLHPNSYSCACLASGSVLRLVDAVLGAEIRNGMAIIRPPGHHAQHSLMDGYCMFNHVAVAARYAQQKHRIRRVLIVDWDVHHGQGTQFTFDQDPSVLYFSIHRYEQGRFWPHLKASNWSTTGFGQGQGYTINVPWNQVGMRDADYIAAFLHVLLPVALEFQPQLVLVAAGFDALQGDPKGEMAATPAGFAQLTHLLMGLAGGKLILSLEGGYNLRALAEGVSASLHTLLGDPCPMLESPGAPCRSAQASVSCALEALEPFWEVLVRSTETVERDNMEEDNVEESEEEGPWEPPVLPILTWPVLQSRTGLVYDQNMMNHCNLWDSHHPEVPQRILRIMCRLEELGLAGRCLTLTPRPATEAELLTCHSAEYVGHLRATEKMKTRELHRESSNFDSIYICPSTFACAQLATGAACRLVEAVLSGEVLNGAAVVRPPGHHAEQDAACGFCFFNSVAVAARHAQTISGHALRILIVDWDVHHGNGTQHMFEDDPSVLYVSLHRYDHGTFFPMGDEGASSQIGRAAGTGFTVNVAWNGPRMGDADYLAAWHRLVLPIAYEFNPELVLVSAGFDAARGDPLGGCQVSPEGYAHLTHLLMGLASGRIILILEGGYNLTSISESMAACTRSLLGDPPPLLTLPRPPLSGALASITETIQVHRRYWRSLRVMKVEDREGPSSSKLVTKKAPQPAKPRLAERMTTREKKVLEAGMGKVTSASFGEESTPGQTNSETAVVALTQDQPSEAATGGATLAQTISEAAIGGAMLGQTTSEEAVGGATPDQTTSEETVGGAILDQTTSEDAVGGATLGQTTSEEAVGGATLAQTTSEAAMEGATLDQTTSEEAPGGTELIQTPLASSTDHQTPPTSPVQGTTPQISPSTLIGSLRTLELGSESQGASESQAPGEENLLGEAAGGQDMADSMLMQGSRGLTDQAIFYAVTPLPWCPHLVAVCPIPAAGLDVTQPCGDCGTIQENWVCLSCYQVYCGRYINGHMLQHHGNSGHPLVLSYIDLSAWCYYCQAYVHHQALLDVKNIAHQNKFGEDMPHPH

[7] = target: T2, Histone deacetylase 8 (Homo sapiens, UniProt Q9BY41); experiment: Inhibition of HDAC8
T2 sequence (Q9BY41 whole entry): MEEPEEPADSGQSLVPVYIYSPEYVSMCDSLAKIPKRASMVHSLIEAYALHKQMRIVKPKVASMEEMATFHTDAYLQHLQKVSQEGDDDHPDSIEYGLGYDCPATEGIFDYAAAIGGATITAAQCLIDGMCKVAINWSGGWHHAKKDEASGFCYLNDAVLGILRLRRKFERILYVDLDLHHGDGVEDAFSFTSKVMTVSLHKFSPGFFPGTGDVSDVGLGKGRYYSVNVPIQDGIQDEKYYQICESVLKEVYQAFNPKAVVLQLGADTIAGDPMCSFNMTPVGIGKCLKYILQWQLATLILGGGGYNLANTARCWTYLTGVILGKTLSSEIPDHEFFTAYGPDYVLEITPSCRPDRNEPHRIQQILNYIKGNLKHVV

[8] = test system: HCT-116; experiment: Antitumor activity against human HCT116 cells xenografted in po dosed mouse assessed as reduction in tumor growth dosed daily for 21 days; format: functional, organism-based
[9] = test system: Mus musculus; experiment: Effect on histone H2B acetylation in human HCT116 cells xenografted in CD1 mouse assessed as change in ratio of acetylated to deacetylated histone level at 150 mg/kg, po QD for 3 days measured after 8 hrs; format: functional, organism-based; parameters: dose 150 mg/kg; conditions: HCT-116
[10] = target: Histone deacetylase 3 (Homo sapiens, UniProt O15379); experiment: Inhibition of HDAC3
Sequence of Histone deacetylase 3 (O15379 whole entry): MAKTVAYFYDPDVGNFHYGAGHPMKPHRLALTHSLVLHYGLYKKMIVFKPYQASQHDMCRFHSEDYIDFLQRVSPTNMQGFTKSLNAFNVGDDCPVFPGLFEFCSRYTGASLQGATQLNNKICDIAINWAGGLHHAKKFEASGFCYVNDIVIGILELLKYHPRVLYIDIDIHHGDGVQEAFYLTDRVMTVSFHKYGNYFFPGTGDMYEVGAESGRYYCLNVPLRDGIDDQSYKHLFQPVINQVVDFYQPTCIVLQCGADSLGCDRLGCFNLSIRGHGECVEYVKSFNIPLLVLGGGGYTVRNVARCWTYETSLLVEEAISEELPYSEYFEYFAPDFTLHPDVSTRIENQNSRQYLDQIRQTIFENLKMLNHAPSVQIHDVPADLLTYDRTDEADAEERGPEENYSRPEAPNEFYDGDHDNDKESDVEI

[11] = target: Histone deacetylase 5 (Homo sapiens, UniProt Q9UQL6); experiment: Inhibition of HDAC5
Sequence of Histone deacetylase 5 (Q9UQL6 whole entry): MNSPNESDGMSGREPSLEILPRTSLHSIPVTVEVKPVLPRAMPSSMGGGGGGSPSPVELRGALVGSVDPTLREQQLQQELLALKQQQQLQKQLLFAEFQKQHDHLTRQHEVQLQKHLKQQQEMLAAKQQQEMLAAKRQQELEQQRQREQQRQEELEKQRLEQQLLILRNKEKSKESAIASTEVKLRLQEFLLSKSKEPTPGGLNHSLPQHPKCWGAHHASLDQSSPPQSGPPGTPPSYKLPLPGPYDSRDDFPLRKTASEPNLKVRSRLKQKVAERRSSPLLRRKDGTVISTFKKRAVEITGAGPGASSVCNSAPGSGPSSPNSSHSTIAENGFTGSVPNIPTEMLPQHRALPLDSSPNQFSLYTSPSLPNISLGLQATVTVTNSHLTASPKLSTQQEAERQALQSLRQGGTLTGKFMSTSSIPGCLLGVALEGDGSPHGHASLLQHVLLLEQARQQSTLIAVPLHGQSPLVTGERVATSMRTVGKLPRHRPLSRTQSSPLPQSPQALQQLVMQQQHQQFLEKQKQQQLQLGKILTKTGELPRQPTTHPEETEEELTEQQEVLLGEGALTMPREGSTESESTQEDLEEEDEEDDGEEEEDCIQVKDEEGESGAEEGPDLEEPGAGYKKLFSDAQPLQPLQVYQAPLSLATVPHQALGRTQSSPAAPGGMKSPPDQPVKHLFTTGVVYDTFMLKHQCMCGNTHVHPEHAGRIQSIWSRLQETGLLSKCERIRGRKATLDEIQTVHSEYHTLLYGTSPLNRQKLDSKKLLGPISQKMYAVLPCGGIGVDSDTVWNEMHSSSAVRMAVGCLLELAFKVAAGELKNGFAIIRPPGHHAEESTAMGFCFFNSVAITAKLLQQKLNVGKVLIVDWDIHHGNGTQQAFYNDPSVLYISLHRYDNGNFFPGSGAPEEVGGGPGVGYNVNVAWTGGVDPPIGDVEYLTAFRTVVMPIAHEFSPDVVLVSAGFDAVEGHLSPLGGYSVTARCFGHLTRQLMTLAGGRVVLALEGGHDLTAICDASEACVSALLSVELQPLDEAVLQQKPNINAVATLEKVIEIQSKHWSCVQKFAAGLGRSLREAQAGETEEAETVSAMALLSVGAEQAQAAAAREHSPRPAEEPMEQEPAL

[12] = target: Histone deacetylase 4 (Homo sapiens, UniProt P56524); experiment: Inhibition of HDAC4
Sequence of Histone deacetylase 4 (P56524 whole entry): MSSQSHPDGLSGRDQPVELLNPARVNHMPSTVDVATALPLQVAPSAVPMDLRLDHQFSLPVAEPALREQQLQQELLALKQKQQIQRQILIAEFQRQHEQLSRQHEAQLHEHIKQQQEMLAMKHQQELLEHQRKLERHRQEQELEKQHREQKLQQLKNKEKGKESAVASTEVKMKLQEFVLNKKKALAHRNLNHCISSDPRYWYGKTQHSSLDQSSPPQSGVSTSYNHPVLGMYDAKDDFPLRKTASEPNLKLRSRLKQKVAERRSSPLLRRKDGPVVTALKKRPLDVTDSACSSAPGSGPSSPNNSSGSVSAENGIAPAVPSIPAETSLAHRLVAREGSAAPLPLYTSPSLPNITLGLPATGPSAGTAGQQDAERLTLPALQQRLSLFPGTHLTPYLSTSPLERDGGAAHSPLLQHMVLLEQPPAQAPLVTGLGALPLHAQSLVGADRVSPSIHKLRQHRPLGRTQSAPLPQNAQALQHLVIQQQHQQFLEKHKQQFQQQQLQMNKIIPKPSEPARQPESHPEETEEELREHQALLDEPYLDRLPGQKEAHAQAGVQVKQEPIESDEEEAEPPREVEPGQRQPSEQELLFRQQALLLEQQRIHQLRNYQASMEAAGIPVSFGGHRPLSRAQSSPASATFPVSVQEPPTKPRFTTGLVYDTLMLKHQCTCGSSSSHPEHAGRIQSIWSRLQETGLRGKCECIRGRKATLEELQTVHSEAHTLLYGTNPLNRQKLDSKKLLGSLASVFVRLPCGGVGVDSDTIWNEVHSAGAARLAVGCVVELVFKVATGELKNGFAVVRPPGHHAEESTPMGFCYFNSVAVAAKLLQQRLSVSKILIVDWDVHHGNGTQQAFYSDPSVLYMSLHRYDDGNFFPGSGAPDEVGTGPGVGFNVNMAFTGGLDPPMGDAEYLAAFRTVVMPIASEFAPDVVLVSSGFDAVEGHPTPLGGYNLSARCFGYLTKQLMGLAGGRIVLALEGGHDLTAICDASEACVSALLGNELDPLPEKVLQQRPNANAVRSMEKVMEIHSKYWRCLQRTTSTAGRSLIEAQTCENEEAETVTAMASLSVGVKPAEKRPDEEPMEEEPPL

[13] = target: T3, Histone deacetylase 7 (Homo sapiens, UniProt Q8WUI4); experiment: Inhibition of HDAC7
T3 sequence (Q8WUI4 whole entry): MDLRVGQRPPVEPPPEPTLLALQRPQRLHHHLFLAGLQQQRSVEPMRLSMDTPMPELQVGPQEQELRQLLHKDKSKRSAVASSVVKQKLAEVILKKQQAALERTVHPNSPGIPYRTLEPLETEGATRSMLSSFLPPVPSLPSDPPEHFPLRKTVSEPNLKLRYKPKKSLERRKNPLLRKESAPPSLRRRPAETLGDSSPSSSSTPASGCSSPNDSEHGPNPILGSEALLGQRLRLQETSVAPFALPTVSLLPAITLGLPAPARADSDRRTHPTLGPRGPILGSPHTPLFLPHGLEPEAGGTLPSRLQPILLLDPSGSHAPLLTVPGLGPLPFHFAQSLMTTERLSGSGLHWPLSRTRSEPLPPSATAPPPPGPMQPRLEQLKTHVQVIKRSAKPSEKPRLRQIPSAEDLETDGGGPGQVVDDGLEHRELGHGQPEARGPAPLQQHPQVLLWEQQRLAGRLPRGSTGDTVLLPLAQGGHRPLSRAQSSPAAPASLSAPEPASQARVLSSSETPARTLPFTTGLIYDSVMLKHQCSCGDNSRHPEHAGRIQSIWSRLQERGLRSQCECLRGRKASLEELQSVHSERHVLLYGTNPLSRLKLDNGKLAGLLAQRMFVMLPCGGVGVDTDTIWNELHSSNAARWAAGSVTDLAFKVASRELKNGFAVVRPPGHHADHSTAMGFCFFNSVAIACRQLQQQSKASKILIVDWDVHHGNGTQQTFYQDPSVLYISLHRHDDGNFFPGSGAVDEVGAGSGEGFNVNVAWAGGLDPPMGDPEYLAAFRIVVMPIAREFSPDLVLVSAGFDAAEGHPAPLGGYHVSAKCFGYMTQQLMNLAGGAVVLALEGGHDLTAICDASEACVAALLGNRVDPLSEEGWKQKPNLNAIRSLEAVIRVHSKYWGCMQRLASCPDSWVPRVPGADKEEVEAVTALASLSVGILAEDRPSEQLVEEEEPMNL

[14] = target: T4, Histone deacetylase 11 (Homo sapiens, UniProt Q96DB2); experiment: Inhibition of HDAC11
T4 sequence (Q96DB2 whole entry): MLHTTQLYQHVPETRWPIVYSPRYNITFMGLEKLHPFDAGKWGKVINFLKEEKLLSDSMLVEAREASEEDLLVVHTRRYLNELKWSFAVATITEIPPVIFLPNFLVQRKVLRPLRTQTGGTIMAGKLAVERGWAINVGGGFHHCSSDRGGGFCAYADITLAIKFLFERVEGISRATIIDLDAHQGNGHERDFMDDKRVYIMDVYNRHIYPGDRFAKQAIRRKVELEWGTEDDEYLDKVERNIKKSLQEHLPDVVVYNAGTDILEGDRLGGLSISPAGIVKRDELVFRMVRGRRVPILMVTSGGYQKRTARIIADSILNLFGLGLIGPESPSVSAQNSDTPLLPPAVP

[15] = target: Histone deacetylase 2 (Homo sapiens, UniProt Q92769); experiment: Inhibition of HDAC2
Sequence of Histone deacetylase 2 (Q92769 whole entry): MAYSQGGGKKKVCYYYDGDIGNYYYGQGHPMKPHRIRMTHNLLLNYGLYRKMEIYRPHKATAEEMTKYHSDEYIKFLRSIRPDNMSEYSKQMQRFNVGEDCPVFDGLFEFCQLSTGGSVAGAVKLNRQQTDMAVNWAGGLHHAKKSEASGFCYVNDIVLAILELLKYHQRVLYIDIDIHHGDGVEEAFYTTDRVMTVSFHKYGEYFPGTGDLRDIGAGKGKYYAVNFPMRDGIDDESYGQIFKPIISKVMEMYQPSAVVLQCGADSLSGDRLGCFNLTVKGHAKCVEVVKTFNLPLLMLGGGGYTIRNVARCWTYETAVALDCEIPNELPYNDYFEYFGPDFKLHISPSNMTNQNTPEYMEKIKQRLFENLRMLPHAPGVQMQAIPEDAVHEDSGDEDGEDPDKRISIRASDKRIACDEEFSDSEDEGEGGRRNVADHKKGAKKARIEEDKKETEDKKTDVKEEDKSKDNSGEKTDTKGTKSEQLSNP

[16] = test system: Mus musculus; experiment: Effect on histone H2B acetylation in human HCT116 cells xenografted in CD1 mouse assessed as change in ratio of acetylated to deacetylated histone level at 150 mg/kg, po QD for 3 days measured after 24 hrs; format: functional, organism-based; parameters: dose 150 mg/kg; conditions: HCT-116
[17] = test system: Mus musculus; experiment: Toxicity in human HCT116 cells xenografted CD1 mouse assessed as body weight loss at 100 mg/kg, po after 21 days; format: organism-based, HCT-116; parameters: dose 100 mg/kg, route oral; conditions: in vivo, 504 h
[18] = Half life in Sprague-Dawley rat; format: ADME, organism-based; conditions: in vivo
[19] = Volume of distribution at steady state in Swiss-Webster mouse; format: ADME, organism-based; conditions: in vivo, read-out: Vdss
[20] = Volume of distribution at steady state in Beagle dog; format: ADME, organism-based, Canis lupus familiaris; conditions: in vivo, read-out: Vdss
[21] = Oral bioavailability in Sprague-Dawley rat; format: ADME, organism-based; conditions: in vivo
[22] = AUC (0 to infinity) in Beagle dog; format: ADME, organism-based, Canis lupus familiaris; parameters: time infinity; conditions: plasma
[23] = AUC (0 to infinity) in Swiss-Webster mouse; format: ADME, organism-based; parameters: time infinity; conditions: plasma
[24] = AUC (0 to infinity) in po dosed Sprague-Dawley rat; format: ADME, organism-based; parameters: time infinity, route oral; conditions: plasma
[25] = Half life in Swiss-Webster mouse; format: ADME, organism-based; conditions: in vivo
[26] = Half life in Beagle dog; format: ADME, organism-based, Canis lupus familiaris; conditions: in vivo
[27] = Clearance in Sprague-Dawley rat plasma; format: ADME, organism-based
[28] = Volume of distribution at steady state in Sprague-Dawley rat; format: ADME, organism-based; conditions: in vivo, read-out: Vdss
[29] = Plasma concentration in ip dosed nude CD-1 mouse after 3 hrs

Sequence of Histone deacetylase 1 (Q13547 whole entry): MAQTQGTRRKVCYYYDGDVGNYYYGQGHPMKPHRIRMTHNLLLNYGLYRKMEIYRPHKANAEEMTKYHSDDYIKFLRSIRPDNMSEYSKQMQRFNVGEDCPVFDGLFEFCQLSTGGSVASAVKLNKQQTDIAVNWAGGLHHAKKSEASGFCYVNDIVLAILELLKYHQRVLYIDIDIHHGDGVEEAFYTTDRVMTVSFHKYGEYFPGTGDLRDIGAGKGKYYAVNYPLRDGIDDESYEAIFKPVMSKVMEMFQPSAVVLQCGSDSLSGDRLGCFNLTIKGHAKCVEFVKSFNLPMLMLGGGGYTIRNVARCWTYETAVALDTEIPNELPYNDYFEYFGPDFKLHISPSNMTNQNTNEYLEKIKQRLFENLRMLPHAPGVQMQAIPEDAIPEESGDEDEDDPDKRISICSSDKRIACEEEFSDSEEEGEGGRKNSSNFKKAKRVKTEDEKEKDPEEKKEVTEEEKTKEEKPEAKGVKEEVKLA

Compound	IC50 [1] [nM]	Cmax [2] [µM]	AUC [3] [µM·h]	GI50 [4] [nM]	other results
CC(C)P(=O)(Cc1ccc(C(=O)Nc2cc(-c3cccs3)ccc2N)cc1)C(C)C	11	1.9	1.3	270	–
COP(=O)(c1ccccc1)c1ccc(C(=O)Nc2cc(-c3cccs3)ccc2N)cc1 (stereo unspecified)	29	11	12	380	–
CCOP(=O)(CNCc1ccc(C(=O)Nc2cc(-c3cccs3)ccc2N)cc1)OCC	7.7	–	–	300	Activity [5]: Non-toxic; IC50 [6]: > 50000 nM; IC50 [7]: 37000 nM; Activity [8]: Dose-dependent effect; Activity [9]: Active; IC50 [10]: 12000 nM; IC50 [11]: > 50000 nM; IC50 [12]: > 50000 nM; IC50 [13]: > 50000 nM; IC50 [14]: > 50000 nM; IC50 [15]: 14 nM
CCOP(=O)(Cc1cccc(C(=O)Nc2cc(-c3cccs3)ccc2N)c1)OCC	23	–	–	2500	–
COP(=O)(Cc1cccc(C(=O)Nc2cc(-c3cccs3)ccc2N)c1)c1ccccc1 (stereo unspecified)	140	–	–	8600	–
CCOP(C)(=O)Cc1ccc(C(=O)Nc2cc(-c3cccs3)ccc2N)cc1 (stereo unspecified)	16	31	50	330	Activity [16]: inactive
CCOP(C)(=O)c1ccc(C(=O)Nc2cc(-c3cccs3)ccc2N)cc1 (stereo unspecified)	14	43	44	460	–
CCOP(=O)(c1ccccc1)c1ccc(C(=O)Nc2cc(-c3cccs3)ccc2N)cc1 (stereo unspecified)	21	0.56	0.91	170	–
CCP(=O)(Cc1ccc(C(=O)Nc2cc(-c3cccs3)ccc2N)cc1)OC (stereo unspecified)	7	–	–	130	–
COP(C)(=O)c1ccc(C(=O)Nc2cc(-c3cccs3)ccc2N)cc1 (stereo unspecified)	52	39	60	420	–
CCOP(=O)(O)c1ccc(C(=O)Nc2cc(-c3cccs3)ccc2N)cc1	42	–	–	> 20000	–
COP(C)(=O)Cc1ccc(C(=O)Nc2cc(-c3cccs3)ccc2N)cc1 (stereo unspecified)	54	88	115	160	Activity [8]: Dose-dependent effect; Activity [17]: 22%; Activity [16]: Active
CCOP(=O)(O)Cc1ccc(C(=O)Nc2cc(-c3cccs3)ccc2N)cc1	38	–	–	> 20000	–
CP(=O)(Cc1ccc(C(=O)Nc2cc(-c3cccs3)ccc2N)cc1)OCc1cccnc1 (stereo unspecified)	3.5	8.8	16	130	–
CCP(=O)(CC)Cc1ccc(C(=O)Nc2cc(-c3cccs3)ccc2N)cc1	9	14	17	200	–
CCOP(=O)(CC)Cc1ccc(C(=O)Nc2cc(-c3cccs3)ccc2N)cc1 (stereo unspecified)	6.5	17	17	240	–
CCOP(=O)(Cc1ccc(C(=O)Nc2cc(-c3cccs3)ccc2N)cc1)OCC	13	–	–	250	half-life [18]: 5.5 h; Vd [19]: 20.1 L/kg; Vd [20]: 2.85 L/kg; bioavailability [21]: 45%; AUC(0-inf) [22]: 0.25 µM·h; AUC(0-inf) [23]: 0.17 µM·h; AUC(0-inf) [24]: 4.4 µM·h; half-life [25]: 55 h; half-life [26]: 0.43 h; clearance [27]: 15.8 mL/min/kg; Vd [28]: 7.27 L/kg; concentration at 3 h [29]: 1.54 µM
CCP(=O)(Cc1cccc(C(=O)Nc2cc(-c3cccs3)ccc2N)c1)OC (stereo unspecified)	90	–	–	6000	–
COP(=O)(Cc1ccc(C(=O)Nc2cc(-c3cccs3)ccc2N)cc1)c1ccccc1 (stereo unspecified)	20	–	–	360	–
Nc1ccc(-c2cccs2)cc1NC(=O)c1ccc(CP(=O)(O)c2ccccc2)cc1	28	–	–	> 20000	–
CCOP(=O)(OCC)c1ccc(C(=O)Nc2cc(-c3cccs3)ccc2N)cc1	22	–	–	410	–
CCP(=O)(CC)Cc1cccc(C(=O)Nc2cc(-c3cccs3)ccc2N)c1	270	–	–	> 20000	–
